Experimental data reported in patent publication US20090298912A1, “Arginase II: A Target treatment of aging heart and heart failure” (The Johns Hopkins University, priority 2005, published 2009).
“Also recorded” adds a separate entry of the source.

Legend:
NO production = NO production (nitrite levels) in heart and isolated cardiac myocyte lysates; type: biochemical, rat; conditions: for Effect on myocyte NO production: isolated myocytes, exogenous L-arginine 0.1 mM alone; for NO production: BEC 10 μmol/L, n=6
Procedure: NOS Activity and NO Production: NO production was evaluated by measuring nitrite levels (Calbiochem) following pre-incubation of heart and myocytes with BEC (10 μmol/L) in PBS (pH 7.4) as previously described (52).

[1] = test system: isolated rat cardiac myocytes; test: Contractility (sarcomere shortening) in isolated rat myocytes; type: cell-based; conditions: for Sarcomere shortening, agent alone: agent alone (L-arginine 0.1 mM), n=3, species of myocytes not stated; for Emax, increase in myocardial contractility (sarcomere shortening) / EC50: dose response; for EC50: log value, read-out: LogEC50, increase in myocardial contractility (sarcomere shortening) (converted); for Effect on the BEC-induced increase in contractility: L-NAME 10^−4 M (0.1 mM), SMTC 10 μM
Procedure: (§1) Measurement of Contractility in Isolated Rat and Mouse Myocytes: Both rat and mouse myocytes were isolated by enzymatic digestion as previously described (2, 3). Myocytes were transferred to a lucite chamber on the stage of an inverted microscope (Nikon TE 200), continuously superfused with Tyrodes containing 1.0 mM Ca^2+, and stimulated at 1 Hz. Sarcomere length was recorded with an IonOptix intensified charged coupled device camera (iCCD) camera. Change in average sarcomere length was determined by fast Fourier transform of the Z-line density trace to the frequency domain (IonOptix, Milton, Mass.) as previously described (2, 3).
(§2) Data Analysis and Statistics: All data are presented as mean±SEM, with N being indicated for each experimental protocol. For dose responses, data was fitted using the software program Prism 4 (Graphpad) and Emax and EC50 calculated. Statistical analysis was performed using one-way analysis of variance with post test or unpaired Student t test where appropriate.

arginase [2] = molecular target: T1, arginase (Rattus norvegicus, UniProt O08701); test: Arginase activity in rat heart and isolated myocyte homogenates; type: biochemical; conditions: isolated rat myocytes, dose-dependent
T1 construct: Arginase activity is present in both whole rat heart (n=4) and isolated rat myocytes (n=3); from tissue; host or cells: Wistar rat heart tissue and freshly isolated rat cardiac myocytes (homogenates)
T1 sequence (O08701 23-354): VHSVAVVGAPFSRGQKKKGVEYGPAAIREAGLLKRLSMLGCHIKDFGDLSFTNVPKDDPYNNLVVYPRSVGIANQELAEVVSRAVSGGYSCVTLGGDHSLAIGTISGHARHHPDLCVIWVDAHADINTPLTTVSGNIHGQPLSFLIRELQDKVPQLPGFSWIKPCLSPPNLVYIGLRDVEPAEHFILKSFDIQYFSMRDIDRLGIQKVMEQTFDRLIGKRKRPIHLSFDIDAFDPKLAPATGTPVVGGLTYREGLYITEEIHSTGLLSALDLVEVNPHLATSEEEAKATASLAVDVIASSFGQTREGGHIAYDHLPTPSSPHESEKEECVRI
Procedure: (§3) Arginase Activity: Rat hearts and myocytes were homogenized in lysis buffer (50 mM Tris-HCl, pH 7.5, 0.1 mM EDTA and protease inhibitor) and centrifuged for 30 min at 14,000 g at 4° C. for an arginase activity assay as described previously (20).

arginase [3] = test: as above; type: biochemical; conditions: whole rat heart homogenate, dose-dependent
Procedure: as §3

isolated mouse myocytes = test: Contractility (sarcomere shortening) in isolated mouse myocytes (WT, NOS1 and NOS3 deficient); type: cell-based
From the text: Animals: Mice (8 to 10 weeks old) homozygous for targeted disruption of the NOS1 gene (NOS1^−/−, n=3), the NOS3 gene (NOS3^−/−, n=3), and wild-type control mice (WT, C57BL6J, n=3) were purchased from Jackson Laboratories. All rats (Wistar, 11 to 14 weeks old) were purchased from Harlan Laboratory. All protocols conformed to the current National Institutes of Health and American Physiological Society Guidelines for the Use and Care of Laboratory Animals.
as §1, §2

With `N=C(N)NCCC[C@H](N)C(=O)O` [L-arginine] the “Effect on myocyte NO production” value (NO production) was “did not effect”, the “Effect on myocyte NO production” value (NO production; listed as L-Arginine) was “no effect” and the “Sarcomere shortening, agent alone” value [1] was 1.1±0.05 fold change.

`N=C(NO)NCC[C@H](N)C(=O)O` [Nor-NOHA, N-hydroxy-nor-L-arginine] was tested, and the “Increase in contractility (sarcomere shortening)” value ([1]; isolated rat myocytes, Nor-NOHA dose response (FIG. 4b legend)) was 1.9±0.45 fold increase, the “Emax, increase in myocardial contractility (sarcomere shortening)” value ([1]; isolated rat myocytes) was 1.98±0.23 fold increase and the EC50 ([1]; isolated rat myocytes) was 1580 nM.

In the case of `COC(=O)[C@@H](N)CCCNC(=N)N[N+](=O)[O-]` [L-NAME], the “Sarcomere shortening, agent alone” value [1] is reported as 0.76±0.06 fold change and the “Effect on the BEC-induced increase in contractility” value ([1]; isolated rat myocytes) is reported as “completely abolished; also recorded: completely inhibited”.

`CSC(N)=NCCC[C@H](N)C(=O)O` [SMTC] was tested, and the “Effect on the BEC-induced increase in contractility” value ([1]; isolated rat myocytes) was “abolished; also recorded: inhibited”.

For `N[C@@H](CSCCB(O)O)C(=O)O` [BEC, S-(2-boronoethyl)-L-cysteine], the NO production (NO production; heart lysates) was 16.7±1 μmol/mg protein, the NO production (NO production; isolated myocyte lysates) was 11.1±2.2 μmol/mg protein and the “Arginase activity in presence of inhibitor” value (arginase [2]) was “inhabitable; also recorded: inhibited”. The “Arginase activity in presence of inhibitor” value (arginase [3]) was “inhibitable; also recorded: inhibited”, the “Contractility, fold change in sarcomere shortening” value ([1]; isolated rat myocytes, BEC 10^−5M alone (FIG. 4a)) was 2.1±0.14 fold change and the “Contractility (sarcomere shortening), fold change” value ([1]; isolated rat myocytes, BEC alone, NOS1 inhibitor experiment (FIG. 5a)) was 2.06±0.14. The “Emax, increase in myocardial contractility (sarcomere shortening)” value ([1]; isolated rat myocytes) was 1.8±0.3 fold increase, the EC50 ([1]; isolated rat myocytes) was 1580 nM and the “Effect on sarcomere shortening” value ([1]; isolated rat myocytes, increasing doses) was “dose dependently increased”. For the same compound, the “Emax, basal sarcomere shortening” value (isolated mouse myocytes; myocytes from NOS1 deficient mice) was 1.11±0.08, the “Effect on contractility” value (isolated mouse myocytes; myocytes from NOS1 deficient mice, increasing doses) was “no effect” and the “Emax, basal sarcomere shortening” value (isolated mouse myocytes; myocytes from NOS3 deficient mice) was 1.81±0.17. For the same compound, the “Effect on sarcomere shortening” value (isolated mouse myocytes; myocytes from NOS3 deficient mice, increasing doses) was “dose dependently increased”, the “Effect on sarcomere shortening” value (isolated mouse myocytes; myocytes from WT mice, increasing doses) was “dose dependently increased” and the “Emax, basal sarcomere shortening” value (isolated mouse myocytes; myocytes from wild type mice) was 1.97±0.24.
